# Measurements taken from ChEMBL document CHEMBL3885881, “DrugMatrix”.
# Species: Rattus norvegicus
# Assay: DrugMatrix - Regimen: Daily Repeat
# Type: toxicity, organism-based, Sprague-Dawley
# Parameters: regimen Daily Repeat, gender Male, age 6-8 weeks
# Details: in vivo, iv, vehicle 100 % SALINE; for ABSOLUTE BASOPHIL / ABSOLUTE EOSINOPHIL / ABSOLUTE LYMPHOCYTE / ABSOLUTE MONOCYTE / ABSOLUTE SEGMENTED NEUTROPHIL / BASOPHIL / EOSINOPHIL / ERYTHROCYTE COUNT / HEMATOCRIT / HEMOGLOBIN / LEUKOCYTE COUNT / LYMPHOCYTE / MEAN CORPUSCULAR HEMOGLOBIN / MONOCYTE / NEUTROPHIL / NUCLEATED RED BLOOD CELLS / PLATELET COUNT / MEAN CORPUSCULAR HEMOGLOBIN CONCENTRATION / MEAN CORPUSCULAR VOLUME: tissue Blood
# [1] = 6 mg/kg, 72 h, dose level High, time 3 day
# [2] = 6 mg/kg, 72 h, tissue Plasma, dose level High, time 3 day
# [3] = 6 mg/kg, 120 h, dose level High, time 5 day
# [4] = 6 mg/kg, 120 h, tissue Plasma, dose level High, time 5 day
# [5] = […], 72 h, dose 0.12 mg/Kg, dose level Low, time 3 day
# [6] = […], 72 h, tissue Plasma, dose 0.12 mg/Kg, dose level Low, time 3 day
# [7] = […], 120 h, dose 0.12 mg/Kg, dose level Low, time 5 day
# [8] = […], 120 h, tissue Plasma, dose 0.12 mg/Kg, dose level Low, time 5 day
substance,measurement,setting,value
SODIUM NITROPRUSSIDE,ABSOLUTE BASOPHIL,[1],0 CELLS/uL
same,ABSOLUTE EOSINOPHIL,[1],0 CELLS/uL
same,ABSOLUTE LYMPHOCYTE,[1],16076 CELLS/uL
same,ABSOLUTE MONOCYTE,[1],195 CELLS/uL
same,ABSOLUTE SEGMENTED NEUTROPHIL,[1],1029 CELLS/uL
same,BASOPHIL,[1],0%
same,EOSINOPHIL,[1],0%
same,ERYTHROCYTE COUNT,[1],6.07 x10E6/uL
same,HEMATOCRIT,[1],38.07%
same,HEMOGLOBIN,[1],15 G/DL
same,LEUKOCYTE COUNT,[1],17.3 x10E3/uL
same,LYMPHOCYTE,[1],92.67%
same,MEAN CORPUSCULAR HEMOGLOBIN,[1],24.73 pg
same,MONOCYTE,[1],1%
same,NEUTROPHIL,[1],6.33%
same,NUCLEATED RED BLOOD CELLS,[1],0 /100WBC
same,PLATELET COUNT,[1],1432 x10E3/uL
same,ALANINE AMINOTRANSFERASE,[2],34.67 u/L
same,ALBUMIN,[2],4.5 G/DL
same,ALKALINE PHOSPHATASE,[2],308.33 u/L
same,ASPARTATE AMINOTRANSFERASE,[2],90.67 u/L
same,BLOOD UREA NITROGEN,[2],21.33 mg/dL
same,CARBON DIOXIDE,[2],23.67 mmol/L
same,CHOLESTEROL,[2],68 mg/dL
same,CREATINE PHOSPHOKINASE,[2],251 u/L
same,CREATININE,[2],0.17 mg/dL
same,GLUCOSE,[2],173 mg/dL
same,LACTATE DEHYDROGENASE,[2],383.67 u/L
same,LIPASE,[2],8.33 u/L
same,PHOSPHORUS,[2],13.27 mg/dL
same,POTASSIUM,[2],6.61 MEQ/L
same,TOTAL BILIRUBIN,[2],0.1 mg/dL
same,TOTAL PROTEIN,[2],6.4 G/DL
same,URIC ACID,[2],1.87 mg/dL
same,ABSOLUTE BASOPHIL,[3],0 CELLS/uL
same,ABSOLUTE EOSINOPHIL,[3],139 CELLS/uL
same,ABSOLUTE LYMPHOCYTE,[3],12315 CELLS/uL
same,ABSOLUTE MONOCYTE,[3],50.33 CELLS/uL
same,ABSOLUTE SEGMENTED NEUTROPHIL,[3],1129 CELLS/uL
same,BASOPHIL,[3],0%
same,EOSINOPHIL,[3],1%
same,ERYTHROCYTE COUNT,[3],5.93 x10E6/uL
same,HEMATOCRIT,[3],37.1%
same,HEMOGLOBIN,[3],14.97 G/DL
same,LEUKOCYTE COUNT,[3],13.63 x10E3/uL
same,LYMPHOCYTE,[3],90.33%
same,MEAN CORPUSCULAR HEMOGLOBIN,[3],25.2 pg
same,MEAN CORPUSCULAR HEMOGLOBIN CONCENTRATION,[3],40.33 G/DL
same,MEAN CORPUSCULAR VOLUME,[3],62.57 fL
same,MONOCYTE,[3],0.33%
same,NEUTROPHIL,[3],8.33%
same,NUCLEATED RED BLOOD CELLS,[3],0.33 /100WBC
same,PLATELET COUNT,[3],1277.67 x10E3/uL
same,ALANINE AMINOTRANSFERASE,[4],45.67 u/L
same,ALBUMIN,[4],4.5 G/DL
same,ALKALINE PHOSPHATASE,[4],128.33 u/L
same,ASPARTATE AMINOTRANSFERASE,[4],86 u/L
same,CARBON DIOXIDE,[4],18 mmol/L
same,CHOLESTEROL,[4],61.67 mg/dL
same,CREATINE PHOSPHOKINASE,[4],409.33 u/L
same,CREATININE,[4],0.23 mg/dL
same,LACTATE DEHYDROGENASE,[4],135.67 u/L
same,LIPASE,[4],8.33 u/L
same,PHOSPHORUS,[4],10.9 mg/dL
same,POTASSIUM,[4],16.23 MEQ/L
same,TOTAL BILIRUBIN,[4],0.13 mg/dL
same,TOTAL PROTEIN,[4],6.07 G/DL
same,URIC ACID,[4],1.4 mg/dL
same,ABSOLUTE BASOPHIL,[5],0 CELLS/uL
same,ABSOLUTE EOSINOPHIL,[5],0 CELLS/uL
same,ABSOLUTE LYMPHOCYTE,[5],13522.67 CELLS/uL
same,ABSOLUTE MONOCYTE,[5],88.33 CELLS/uL
same,ABSOLUTE SEGMENTED NEUTROPHIL,[5],1389 CELLS/uL
same,BASOPHIL,[5],0%
same,EOSINOPHIL,[5],0%
same,ERYTHROCYTE COUNT,[5],5.31 x10E6/uL
same,HEMATOCRIT,[5],34.4%
same,HEMOGLOBIN,[5],13.63 G/DL
same,LEUKOCYTE COUNT,[5],15 x10E3/uL
same,MEAN CORPUSCULAR HEMOGLOBIN,[5],25.67 pg
same,MEAN CORPUSCULAR HEMOGLOBIN CONCENTRATION,[5],39.63 G/DL
same,MEAN CORPUSCULAR VOLUME,[5],64.8 fL
same,MONOCYTE,[5],0.67%
same,NEUTROPHIL,[5],9.67%
same,NUCLEATED RED BLOOD CELLS,[5],0.33 /100WBC
same,PLATELET COUNT,[5],1321.67 x10E3/uL
same,ALANINE AMINOTRANSFERASE,[6],54.33 u/L
same,ALBUMIN,[6],4.1 G/DL
same,ALKALINE PHOSPHATASE,[6],342 u/L
same,ASPARTATE AMINOTRANSFERASE,[6],87.33 u/L
same,BLOOD UREA NITROGEN,[6],15 mg/dL
same,CARBON DIOXIDE,[6],26.67 mmol/L
same,CHLORIDE,[6],98.67 MEQ/L
same,CHOLESTEROL,[6],76 mg/dL
same,CREATINE PHOSPHOKINASE,[6],335.67 u/L
same,CREATININE,[6],0.11 mg/dL
same,GLUCOSE,[6],157.67 mg/dL
same,LACTATE DEHYDROGENASE,[6],223 u/L
same,PHOSPHORUS,[6],12.93 mg/dL
same,POTASSIUM,[6],6.73 MEQ/L
same,TOTAL BILIRUBIN,[6],0.23 mg/dL
same,TOTAL PROTEIN,[6],5.9 G/DL
same,ABSOLUTE BASOPHIL,[7],0 CELLS/uL
same,ABSOLUTE EOSINOPHIL,[7],39.33 CELLS/uL
same,ABSOLUTE LYMPHOCYTE,[7],10382.67 CELLS/uL
same,ABSOLUTE MONOCYTE,[7],0 CELLS/uL
same,ABSOLUTE SEGMENTED NEUTROPHIL,[7],444.67 CELLS/uL
same,BASOPHIL,[7],0%
same,EOSINOPHIL,[7],0.33%
same,ERYTHROCYTE COUNT,[7],5.02 x10E6/uL
same,HEMATOCRIT,[7],31.9%
same,HEMOGLOBIN,[7],12.83 G/DL
same,LEUKOCYTE COUNT,[7],10.87 x10E3/uL
same,LYMPHOCYTE,[7],95.67%
same,MEAN CORPUSCULAR HEMOGLOBIN,[7],25.6 pg
same,MEAN CORPUSCULAR HEMOGLOBIN CONCENTRATION,[7],40.23 G/DL
same,MEAN CORPUSCULAR VOLUME,[7],63.6 fL
same,MONOCYTE,[7],0%
same,NEUTROPHIL,[7],4%
same,NUCLEATED RED BLOOD CELLS,[7],0 /100WBC
same,PLATELET COUNT,[7],1212.67 x10E3/uL
same,ALANINE AMINOTRANSFERASE,[8],40.33 u/L
same,ALKALINE PHOSPHATASE,[8],391 u/L
same,ASPARTATE AMINOTRANSFERASE,[8],87.33 u/L
same,BLOOD UREA NITROGEN,[8],17 mg/dL
same,CARBON DIOXIDE,[8],28 mmol/L
same,CHOLESTEROL,[8],71.67 mg/dL
same,CREATINE PHOSPHOKINASE,[8],215.33 u/L
same,CREATININE,[8],0.14 mg/dL
same,GLUCOSE,[8],156.33 mg/dL
same,LACTATE DEHYDROGENASE,[8],79 u/L
same,POTASSIUM,[8],6.73 MEQ/L
same,TOTAL BILIRUBIN,[8],0.23 mg/dL
same,TOTAL PROTEIN,[8],5.87 G/DL
